Consider 23 molecules from US20160193216A1 (Nimbus Iris, Inc., priority 2012, published 2016).

Where only a bound is given, the exact number is not on record here.

A word on the IC50: it is the midpoint of a concentration-inhibition curve. Read a high IC50 as weaker potency.

This test deals with T1, IRAK4 (Homo sapiens, UniProt Q9NWZ3).
T1 sequence (Q9NWZ3 1-460): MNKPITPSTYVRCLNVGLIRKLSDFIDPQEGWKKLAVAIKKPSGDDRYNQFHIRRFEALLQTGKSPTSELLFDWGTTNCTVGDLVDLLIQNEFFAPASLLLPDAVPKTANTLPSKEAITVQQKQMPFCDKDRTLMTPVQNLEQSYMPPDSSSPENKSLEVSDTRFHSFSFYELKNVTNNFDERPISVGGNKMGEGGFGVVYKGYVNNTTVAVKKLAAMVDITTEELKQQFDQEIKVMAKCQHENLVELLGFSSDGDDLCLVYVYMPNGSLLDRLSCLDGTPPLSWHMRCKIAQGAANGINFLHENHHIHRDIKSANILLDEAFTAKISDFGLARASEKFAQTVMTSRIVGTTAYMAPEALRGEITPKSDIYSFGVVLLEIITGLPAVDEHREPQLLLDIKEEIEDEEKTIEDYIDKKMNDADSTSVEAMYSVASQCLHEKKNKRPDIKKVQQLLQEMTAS
As to the kind of experiment: IRAK-4 activity inhibition assay (Caliper). Conditions: 37 μM ATP, 3.5 nM IRAK4. The class given is biochemical. Here is the method:
A 1× kinase base buffer was prepared from 50 mM HEPES, pH 7.5 and 0.0015% Brij-35. A stop buffer was prepared from 100 mM HEPES, pH 7.5, 0.015% Brij-35, 0.2% Coating Reagent #3, and 50 mM EDTA.
Test compound was diluted to 50× of the final desired highest inhibitor concentration in reaction by 100% DMSO. 100 μl of this compound dilution was transferred to a well in a 96-well plate.
Test compound was serially diluted by transferring 30 μl to 60 μl of 100% DMSO in the next well and so forth for a total of 10 concentrations. 100 μl of 100% DMSO was added to two empty wells for no compound control and no enzyme control in the same 96-well plate.
A new 96-well plate was marked as intermediate plate. 5 μl of compound serial dilution was transferred from source plate to the corresponding wells of the intermediate plate. 45 μl of 1× kinase base buffer (KB buffer) was added to each well of the intermediate plate. The intermediate plate was placed for 10 min on a shaker.
5 μl of each well was transferred from the 96-well intermediate plate to a 384-well plate in duplicates. […] A2 of the 96-well plate is transferred to A3 and A4 of the 384-well plate, and so on.
IRAK4 and DTT in 1× kinase base buffer was added.
Assay plate already contained 5 μl of compound in 10% DMSO. Added 10 μl of 2.5× enzyme solution to each well of the 384-well assay plate, except no enzyme control wells. […] Added 10 μl of 1× kinase base buffer to no enzyme control wells in the assay plate. Incubated at room temperature for 10 min.
Added 10 μl of 2.5× peptide solution to each well of the 384-well assay plate. […] Incubated at 28° C. for 40 minutes. Added 25 μl of stop buffer to stop reaction. Collected data on Caliper.
Copied conversion % data from Caliper program. Converted conversion % values to percent inhibition values. Percent inhibition=(max−conversion %)/(max−min)*100, where “max” means the conversion % of DMSO control and “min” means the conversion % of no enzyme control.
The compound numbers correspond to the compound numbers in Table 1. […] “NA” stands for “not assayed.”
Regarding `CN(C)[C@H]1CC[C@H](Nc2ncnc3sc4c(c23)C(CN2CCCC2)CC4)CC1` (some centres unmarked) [Compound I-10, (1r,4r)-N1,N1-dimethyl-N4-(5-(pyrrolidin-1-ylmethyl)-6,7-dihydro-5H-cyclopenta[4,5]thieno[2,3-d]pyrimidin-4-yl)cyclohexane-1,4-diamine], the IC50 fell in the range of 20 to 50 µM.

In turn, `COCCC1CCc2sc3ncnc(O[C@H]4CC[C@H](N(C)C)CC4)c3c21` (some centres unmarked) [Compound I-32, 4-[[3-(2-methoxyethyl)-7-thia-9,11-diazatricyclo[6.4.0.0[2,6]]dodeca-1(8),2(6),9,11-tetraen-12-yl]oxy]-N,N-dimethylcyclohexan-1-amine] displayed an IC50 below 5 µM.

`CN[C@H]1CC[C@H](Oc2ncnc3sc4c(c23)[C@@H](C[C@H](C#N)OC)CC4)CC1` [Compound I-81, (2R)-2-methoxy-3-[(3R)-12-[[4-(methylamino)cyclohexyl]oxy]-7-thia-9,11-diazatricyclo[6.4.0.0[2,6]]dodeca-1(8),2(6),9,11-tetraen-3-yl]propanenitrile] showed an IC50 of 5 to 20 µM.

The molecule `NC(=O)C[C@H]1CCc2sc3ncnc(O[C@H]4CC[C@H](N5CCNC(=O)C5)CC4)c3c21` [Compound I-158, 2-((R)-4-(((1r,4R)-4-(3-oxopiperazin-1-yl)cyclohexyl)oxy)-6,7-dihydro-5H-cyclopenta[4,5]thieno[2,3-d]pyrimidin-5-yl)acetamide] had an IC50 of 20 to 50 µM.

With `CN(C)[C@H]1CC[C@H](Nc2ncnc3sc4c(c23)C(C(=O)NCc2ccccc2)CC4)CC1` (some centres unmarked) [Compound I-24, N-benzyl-12-[[4-(dimethylamino)cyclohexyl]amino]-7-thia-9,11-diazatricyclo[6.4.0.0̂[2,6]]dodeca-1(12),2(6),8,10-tetraene-3-carboxamide], the IC50 was 20 to 50 µM.

Molecule `CC[C@H](O)C[C@H]1CCc2sc3ncnc(O[C@H]4CC[C@](CC)(N(C)C)CC4)c3c21` [Compound I-104, (2S)-1-[(3R)-12-[[4-(dimethylamino)-4-ethylcyclohexyl]oxy]-7-thia-9,11-diazatricyclo[6.4.0.0[2,6]]dodeca-1(8),2(6),9,11-tetraen-3-yl]butan-2-ol] yielded an IC50 of 5 to 20 µM.

Turning to `CN(C)[C@H]1CC[C@H](Oc2ncnc3sc4c(c23)[C@@H](CCc2ncco2)CC4)CC1` [Compound I-63, N,N-dimethyl-4-[[(3S)-3-[2-(1,3-oxazol-2-yl)ethyl]-7-thia-9,11-diazatricyclo[6.4.0.0[2,6]]dodeca-1(8),2(6),9,11-tetraen-12-yl]oxy]cyclohexan-1-amine], the IC50 is below 5 µM.

On to `OC[C@H]1CCc2sc3ncnc(N[C@H]4CC[C@H](N5CCOCC5)CC4)c3c2C1` [Compound I-210, [(12S)-3-[[4-(morpholin-4-yl)cyclohexyl]amino]-8-thia-4,6-diazatricyclo[7.4.0.0[2,7]]trideca-2,4,6-trien-12-yl]methanol], for which the IC50 was below 5 µM.

`CN(C)[C@H]1CC[C@H](Oc2ncnc3sc4c(c23)CC(CC(N)=O)OC4)CC1` (some centres unmarked) [Compound I-221, 2-(3-[[4-(dimethylamino)cyclohexyl]oxy]-11-oxa-8-thia-4,6-diazatricyclo[7.4.0.0[2,7]]trideca-1(9),2(7),3,5-tetraen-12-yl)acetamide] displayed an IC50 below 5 µM.

`CNC1CCC(Oc2ncnc3sc4c(c23)[C@@H](C[C@H](N)C(N)=O)CC4)CC1` (stereo partly drawn) [Compound I-146, (2S)-2-amino-3-[(3R)-12-[[4-(methylamino)cyclohexyl]oxy]-7-thia-9,11-diazatricyclo[6.4.0.0[2,6]]dodeca-1(8),2(6),9,11-tetraen-3-yl]propanamide] yielded an IC50 below 5 µM.

Consider `CC[C@H](O)C[C@H]1CCc2sc3ncnc(O[C@H]4CC[C@H](N(C)CC(=O)N5CCCC5)CC4)c3c21` [Compound I-72, 2-(((1R,4r)-4-(((R)-5-((S)-2-hydroxybutyl)-6,7-dihydro-5H-cyclopenta[4,5]thieno[2,3-d]pyrimidin-4-yl)oxy)cyclohexyl)(methyl)amino)-1-(pyrrolidin-1-yl)ethanone], for which the IC50 is below 5 µM.

`NC(=O)C[C@H]1CCc2sc3ncnc(O[C@H]4CC[C@@H](N5CCNC(=O)C5)CC4)c3c21` [Compound I-157, 2-((R)-4-(((1s,4S)-4-(3-oxopiperazin-1-yl)cyclohexyl)oxy)-6,7-dihydro-5H-cyclopenta[4,5]thieno[2,3-d]pyrimidin-5-yl)acetamide] had a half-maximal inhibitory concentration (IC50) below 5 µM.

Molecule `CN[C@H]1CC[C@H](Oc2ncnc3sc4c(c23)[C@@H](CC(=O)NC[C@@H](C)O)CC4)CC1` (stereo in doubt) [Compound I-151, N-[(2R)-2-hydroxypropyl]-2-[(3R)-12-[[4-(methylamino)cyclohexyl]oxy]-7-thia-9,11-diazatricyclo[6.4.0.0[2,6]]dodeca-1(12),2(6),8,10-tetraen-3-yl]acetamide] yielded an IC50 of 5 to 20 µM.

Turning to `CC[C@]1(N(C)C)CC[C@H](Oc2ncnc3sc4c(c23)[C@@H](CCO)CC4)CC1` [Compound I-91, 2-((R)-4-(((1r,4R)-4-(dimethylamino)-4-ethylcyclohexyl)oxy)-6,7-dihydro-5H-cyclopenta[4,5]thieno[2,3-d]pyrimidin-5-yl)ethanol], the IC50 was below 5 µM.

The molecule `CCOCCC1CCc2sc3ncnc(O[C@H]4CC[C@H](N(C)C)CC4)c3c21` (some centres unmarked) [Compound I-31, 4-[[3-(2-ethoxyethyl)-7-thia-9,11-diazatricyclo[6.4.0.0[2,6]]dodeca-1(8),2(6),9,11-tetraen-12-yl]oxy]-N,N-dimethylcyclohexan-1-amine] came in with an IC50 of 5 to 20 µM.

Turning to `CN(C)[C@H]1CC[C@H](Oc2ncnc3sc4c(c23)[C@@H](C[C@H](O)c2cc[nH]n2)CC4)CC1` [Compound I-96, (S)-2-((R)-4-(((1r,4R)-4-(dimethylamino)cyclohexyl)oxy)-6,7-dihydro-5H-cyclopenta[4,5]thieno[2,3-d]pyrimidin-5-yl)-1-(1H-pyrazol-3-yl)ethanol], the concentration for half-maximal inhibition (IC50) is below 5 µM.

In the case of `CN(CC(=O)N1CCCC1)[C@H]1CC[C@H](Nc2ncnc3sc4c(c23)[C@@H](CCC(N)=O)CC4)CC1` [Compound I-127, 3-((S)-4-(((1r,4S)-4-(methyl(2-oxo-2-(pyrrolidin-1-yl)ethyl)amino)cyclohexyl)amino)-6,7-dihydro-5H-cyclopenta[4,5]thieno[2,3-d]pyrimidin-5-yl)propanamide], the IC50 lay in the range of 5 to 20 µM.

With `c1nc(O[C@H]2CC[C@H](N3CCOCC3)CC2)c2c3c(sc2n1)CNC3` [Compound I-192, 12-[[4-(morpholin-4-yl)cyclohexyl]oxy]-7-thia-4,9, 11-triazatricyclo[6.4.0.0[2,6]]dodeca-1(12),2(6),8, 10-tetraene], the IC50 is below 5 µM.

`CN(C)[C@H]1CC[C@H](Nc2ncnc3sc4c(c23)C(CC(=O)O)CC4)CC1` (some centres unmarked) [Compound I-18]: the IC50 is 5 to 20 µM.

In the case of `CNC(=O)N1Cc2sc3ncnc(O[C@H]4CC[C@H](N5CCOCC5)CC4)c3c2C1` [Compound I-200, N-methyl-12-[[4-(morpholin-4-yl)cyclohexyl]oxy]-7-thia-4,9, 11-triazatricyclo[6.4.0.0[2,6]]dodeca-1(8),9, 11-triene-4-carboxamide], the IC50 is below 5 µM.

For the molecule `CN(C)[C@H]1CC[C@H](Nc2ncnc3sc4c(c23)C(CC(=O)N2CC[C@@H](O)C2)CC4)CC1` (stereo partly drawn) [Compound I-16, 2-(4-(((1r,4R)-4-(dimethylamino)cyclohexyl)amino)-6,7-dihydro-5H-cyclopenta[4,5]thieno[2,3-d]pyrimidin-5-yl)-1-((R)-3-hydroxypyrrolidin-1-yl)ethanone], the half-maximal inhibitory concentration (IC50) was above 50 µM.

The molecule `CC[C@@H](O)C[C@H]1CCc2sc3ncnc(N[C@H]4CC[C@H](N(C)C)CC4)c3c21` [Compound I-52] gave an IC50 below 5 µM.

`CN(C)[C@H]1CC[C@H](Nc2ncnc3sc4c(c23)C(C(=O)NCCO)CC4)CC1` (some centres unmarked) [Compound I-17, 12-[[4-(dimethylamino)cyclohexyl]amino]-N-(2-hydroxyethyl)-7-thia-9,11-diazatricyclo[6.4.0.0̂[2,6]]dodeca-1(12),2(6),8,10-tetraene-3-carboxamide] yielded an IC50 below 5 µM.
